Data: patent US6605742B2, “Cyclo azaphospha hydrocarbons” (priority 2001, dated 2003)

Experiments:
Assay type in all cases: biochemical
[1] = biological target: T1, MMP-1 (Homo sapiens, UniProt P03956); test: Test for MMP inhibitory effects: cleavage of fluorogenic substrate M-2055 by MMP-1
T1 construct: purchased Chemicon International, CA, USA
T1 sequence (P03956 100-469): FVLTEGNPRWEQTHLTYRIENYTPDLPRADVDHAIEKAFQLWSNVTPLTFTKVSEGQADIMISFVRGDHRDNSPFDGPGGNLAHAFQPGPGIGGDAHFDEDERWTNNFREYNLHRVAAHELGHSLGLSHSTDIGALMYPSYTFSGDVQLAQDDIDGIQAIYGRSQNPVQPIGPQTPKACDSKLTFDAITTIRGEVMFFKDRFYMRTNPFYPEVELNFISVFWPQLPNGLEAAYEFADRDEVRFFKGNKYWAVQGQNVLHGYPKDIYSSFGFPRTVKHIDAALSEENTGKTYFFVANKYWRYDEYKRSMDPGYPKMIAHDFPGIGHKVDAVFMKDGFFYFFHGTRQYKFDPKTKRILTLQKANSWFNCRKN
Protocol: (§1) The assay measures the effect of the tested compounds on the proteolytic activity of metalloproteases by assessing the cleavage of a fluorogenic substrate. In the uncleaved substrate the fluoresensce is quenched intramolecularly, however, cleavage of the substrate relieves the quenching yielding fluorescent peptides [Bickett, Anal. Biochem, 212, 58-64, 1993; Knight, FEBS Lett., 296, 263-266, 1992].
(§2) The compounds were tested for inhibitory effects towards MMP-1 and MMP-9 (Chemicon International, CA, USA) and MMP-2 (Biogenesis Ltd, UK). Substrate for MMP-1 was M-2055 (Dnp-Pro-β-cyclohexyl-Ala-Gly-Cys(Me)-His-Ala-Lys(N-Me-Abz)-NH2), which is a synthetic peptide-like structure, obtained from Bachem AG, Schwitzerland. Substrate for MMP-2 and MMP-9 was fluorescein-conjugated gelatin obtained from Molecular Probes Inc., OR, USA.
(§3) The enzymes were activated with phenyl mercuric acetate, and incubated with the appropriate substrate and different levels of the compound to be tested. The exitation/emission wavelengths were 350/450 and 485/530 for M-2055 and gelatine, respectively.
(§4) The molar concentration of the test compounds resulting in 50% inhibition of the enzymatic activity (IC50) was calculated from the dose-response curve. For convenience, the results are reported as pIC50, i.e. −log(IC50).

[2] = biological target: T2, MMP-9 (Homo sapiens, UniProt P14780); test: Test for MMP inhibitory effects: cleavage of fluorescein-conjugated gelatin by MMP-9
T2 construct: purchased Chemicon International, CA, USA
Protocol: as §1, §2, §3, §4

[3] = biological target: T3, MMP-2 (Homo sapiens, UniProt P08253); test: Test for MMP inhibitory effects: cleavage of fluorescein-conjugated gelatin by MMP-2
T3 construct: purchased Biogenesis Ltd, UK
T3 sequence (P08253 110-660): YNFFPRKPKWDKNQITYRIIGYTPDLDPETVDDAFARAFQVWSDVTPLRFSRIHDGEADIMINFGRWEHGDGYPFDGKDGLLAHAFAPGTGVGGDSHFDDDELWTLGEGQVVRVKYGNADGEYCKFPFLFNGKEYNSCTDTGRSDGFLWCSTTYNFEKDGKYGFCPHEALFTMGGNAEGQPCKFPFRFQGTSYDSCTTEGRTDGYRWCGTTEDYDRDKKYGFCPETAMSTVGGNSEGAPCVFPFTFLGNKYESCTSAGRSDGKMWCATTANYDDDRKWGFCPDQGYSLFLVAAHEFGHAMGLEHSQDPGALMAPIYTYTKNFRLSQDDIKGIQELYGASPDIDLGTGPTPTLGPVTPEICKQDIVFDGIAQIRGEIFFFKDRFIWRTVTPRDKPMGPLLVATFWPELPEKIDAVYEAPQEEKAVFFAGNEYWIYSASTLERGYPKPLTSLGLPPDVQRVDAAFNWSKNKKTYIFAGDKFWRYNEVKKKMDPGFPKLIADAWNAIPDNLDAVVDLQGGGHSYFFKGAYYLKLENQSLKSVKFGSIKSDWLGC
Protocol: as §1, §2, §3, §4

[4] = pIC50 = -log(IC50), molar, enzyme activated with phenyl mercuric acetate, substrate fluorescein-conjugated gelatin, excitation/emission 485/530

T2 sequence (P14780 107-707 limits assumed, species assumed): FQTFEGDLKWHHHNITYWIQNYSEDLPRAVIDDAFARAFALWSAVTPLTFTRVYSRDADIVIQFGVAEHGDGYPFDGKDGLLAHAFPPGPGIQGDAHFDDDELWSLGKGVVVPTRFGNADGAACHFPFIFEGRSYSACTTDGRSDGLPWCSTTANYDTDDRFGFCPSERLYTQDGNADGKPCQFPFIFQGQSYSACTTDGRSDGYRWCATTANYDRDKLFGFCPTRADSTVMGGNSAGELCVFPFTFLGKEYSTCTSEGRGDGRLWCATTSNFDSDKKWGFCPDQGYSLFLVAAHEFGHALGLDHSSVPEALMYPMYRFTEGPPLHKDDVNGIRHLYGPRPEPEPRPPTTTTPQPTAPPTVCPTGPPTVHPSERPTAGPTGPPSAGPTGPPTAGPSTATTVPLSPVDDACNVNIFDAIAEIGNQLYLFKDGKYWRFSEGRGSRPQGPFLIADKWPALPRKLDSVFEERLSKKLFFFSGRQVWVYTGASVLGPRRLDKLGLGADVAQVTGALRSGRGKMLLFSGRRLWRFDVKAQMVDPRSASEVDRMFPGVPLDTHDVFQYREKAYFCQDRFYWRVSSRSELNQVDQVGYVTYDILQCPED

SMILES	IC50 [1] [nM]	IC50 [2] [nM]	IC50 [3] [nM]	pIC50 MMP-1 ([1]; pIC50 = -log(IC50), molar, enzyme activated with phenyl mercuric acetate, substrate M-2055, excitation/emission 350/450)	pIC50 MMP-9 [2, 4]	pIC50 MMP-2 [3, 4]
O=C(CN1CC=CCP1(=O)c1ccc(Oc2ccccc2)cc1)NO (racemic) [Example 1, (±)-N-hydroxy-2-oxo-2-(4-phenoxyphenyl)-azaphosphorin-4-ene-1-acetamide]	2510	1	5.01	–	–	–
O=C(CN1CC=CCP1(=O)c1ccc(Oc2ccc(Cl)cc2)cc1)NO (racemic) [Example 6, (±)-N-hydroxy-2-(4-(4-chlorophenoxy)-phenyl-2-oxo-azaphosphorin-4-ene-1-acetamide]	5010	0.794	3.98	–	–	–
O=C(CN1CC=CCCP1(=O)c1ccc(Oc2ccccc2)cc1)NO (racemic) [Example 4, (±)-N-hydroxy-2-oxo-2-(4-phenoxyphenyl)-azaphosphorep-5-ene-1-acetamide]	7940	6.31	7.94	–	–	–
O=C(CN1CCCCCP1(=O)c1ccc(Oc2ccccc2)cc1)NO (racemic) [Example 5, (±)-N-hydroxy-2-oxo-2-(4-phenoxyphenyl)-azaphosphorepane-1-acetamide]	–	–	–	5.2	8.5	8.3
